Data: publication PMC12526278, “Origanum vulgare subsp. virens (Hoffmanns. & Link) Bonnier & Layens Essential Oils: Chemotypes and Bioactivity as Antifungal, Antifeeding and Enzyme Inhibitors” (Plants, 2025)
Values after ≈ are worked out from the molar mass of the structure shown. Values belong to the compound of their own block, whether it stands above or below them.

Columns and labels:
[1] = molecular target: T1, β-glucosidase (β-GLU) from almonds; assay: 4-nitrophenol release, absorbance […] nm; format: biochemical, Prunus dulcis; conditions: 4-nitrophenyl beta-D-glucopyranoside, 0.1 M phosphate pH 7.0, 37 °C, 20 min
T1 construct: gene beta-glucosidase; commercial enzyme from almonds (Sigma-Aldrich)

[2] = molecular target: T2, AChE from Electrophorus electricus (Electrophorus electricus, UniProt O42275); assay: Ellman assay, absorbance […] nm; format: biochemical; conditions: acetylthiocholine iodide substrate with DTNB, phosphate buffer; no significant inhibition
[3] = molecular target: T3, α-glucosidase (α-GLU) extracted from Saccharomyces cerevisiae; assay: 4-nitrophenol release, absorbance […] nm; format: biochemical; conditions: 4-nitrophenyl alpha-D-glucopyranoside (5 mM solution), 0.1 M phosphate pH 7.0, 37 °C, 20 min
T3 construct: gene MAL12; commercial yeast enzyme (Sigma-Aldrich)

[4] = molecular target: T2, AChE from Electrophorus electricus; assay: Ellman assay, absorbance […] nm; format: biochemical; conditions: acetylthiocholine iodide substrate with DTNB, phosphate buffer, 5 min preincubation; unreliable (above the tested range, extrapolated)
[5] = molecular target: T2, AChE from Electrophorus electricus; assay: biochemical
[6] = tested on: T3, α-glucosidase (α-GLU) extracted from Saccharomyces cerevisiae; assay: 4-nitrophenol release, absorbance […] nm; format: biochemical; conditions: 4-nitrophenyl alpha-D-glucopyranoside (5 mM solution), 0.1 M phosphate pH 7.0, 37 °C, 20 min; unreliable (far above the tested range, extrapolated)

T2 sequence (O42275 24-633): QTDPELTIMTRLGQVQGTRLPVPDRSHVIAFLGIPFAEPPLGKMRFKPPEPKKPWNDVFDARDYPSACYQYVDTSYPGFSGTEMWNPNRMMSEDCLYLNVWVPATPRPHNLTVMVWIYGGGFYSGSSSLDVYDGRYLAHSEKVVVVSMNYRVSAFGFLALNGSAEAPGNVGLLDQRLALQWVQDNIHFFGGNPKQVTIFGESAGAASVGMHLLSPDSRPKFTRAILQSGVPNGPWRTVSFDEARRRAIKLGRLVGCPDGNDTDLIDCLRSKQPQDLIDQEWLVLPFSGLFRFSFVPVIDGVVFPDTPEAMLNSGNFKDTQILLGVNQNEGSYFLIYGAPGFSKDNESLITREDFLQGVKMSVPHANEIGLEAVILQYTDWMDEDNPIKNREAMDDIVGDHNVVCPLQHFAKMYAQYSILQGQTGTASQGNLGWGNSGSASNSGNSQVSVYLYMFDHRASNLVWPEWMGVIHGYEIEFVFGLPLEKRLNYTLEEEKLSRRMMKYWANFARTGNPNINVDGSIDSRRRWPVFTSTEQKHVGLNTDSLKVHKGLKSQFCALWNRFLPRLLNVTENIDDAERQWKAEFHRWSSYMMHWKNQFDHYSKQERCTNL

- β-GLU / IC50 [1]: 36 ± 1 µg/mL
SMILES: OC[C@H]1NC[C@H](O)[C@@H](O)[C@@H]1O [1-DNJ]

SMILES: CC1=CCC(C(C)C)=CC1 [γ-terpinene]
- Ellman assay, absorbance 405 nm [2]: did not show significant AChE inhibition under our experimental conditions

SMILES: Cc1ccc(C(C)C)c(O)c1 [Thymol]
- α-GLU / IC50 [3]: 304 ± 25 µg/mL
- IC50 [4]: 2531 ± 515 µg/mL (≈ 16.8 mM)

SMILES: Cc1ccc(C(C)C)cc1O [Carvacrol]
- IC50 [5]: 180 µM
- α-GLU / IC50 [6]: 109340 ± 23120 µg/mL
